Legend:
[1] = molecular target: Aldo-keto reductase family 1 member B1 (Rattus norvegicus, UniProt P07943); assay: biochemical; format: tissue-based, Lens of camera-type eye;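 also: inhibition of aldose reductase enzyme activity, measured with DL-glyceraldehyde as the substrate; in other assays of this panel Not Active means under 50% inhibition at 10 µM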
[2] = molecular target: T1, 5-hydroxytryptamine receptor 2C (Homo sapiens, UniProt P28335); assay: DRUGMATRIX: Serotonin (5-Hydroxytryptamine) 5-HT2C radioligand binding (ligand: [3H] Mesulergine); format: cell membranes, CHO-K1, Membrane; settings: Not Active = under 50% inhibition at 10 µM
T1 sequence (P28335 whole entry): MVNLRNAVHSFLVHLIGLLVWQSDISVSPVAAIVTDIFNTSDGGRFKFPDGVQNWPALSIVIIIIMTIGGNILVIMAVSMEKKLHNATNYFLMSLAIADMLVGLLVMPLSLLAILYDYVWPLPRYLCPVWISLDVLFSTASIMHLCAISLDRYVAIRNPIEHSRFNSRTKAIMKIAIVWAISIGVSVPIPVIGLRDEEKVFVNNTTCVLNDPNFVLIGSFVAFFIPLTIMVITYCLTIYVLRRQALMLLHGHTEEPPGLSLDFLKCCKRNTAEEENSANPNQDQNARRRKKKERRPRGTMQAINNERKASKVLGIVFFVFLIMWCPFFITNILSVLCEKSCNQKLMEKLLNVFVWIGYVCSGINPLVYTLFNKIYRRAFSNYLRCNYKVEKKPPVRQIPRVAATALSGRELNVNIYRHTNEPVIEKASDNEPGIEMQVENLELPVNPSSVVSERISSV

[3] = molecular target: Sodium-dependent dopamine transporter (Homo sapiens, UniProt Q01959); assay: DRUGMATRIX: Dopamine Transporter radioligand binding (ligand: [125I] RTI-55); format: cell membranes, CHO-K1, Membrane; settings: cho-k1; Not Active = under 50% inhibition at 10 µM
Sequence of Sodium-dependent dopamine transporter (Q01959 whole entry): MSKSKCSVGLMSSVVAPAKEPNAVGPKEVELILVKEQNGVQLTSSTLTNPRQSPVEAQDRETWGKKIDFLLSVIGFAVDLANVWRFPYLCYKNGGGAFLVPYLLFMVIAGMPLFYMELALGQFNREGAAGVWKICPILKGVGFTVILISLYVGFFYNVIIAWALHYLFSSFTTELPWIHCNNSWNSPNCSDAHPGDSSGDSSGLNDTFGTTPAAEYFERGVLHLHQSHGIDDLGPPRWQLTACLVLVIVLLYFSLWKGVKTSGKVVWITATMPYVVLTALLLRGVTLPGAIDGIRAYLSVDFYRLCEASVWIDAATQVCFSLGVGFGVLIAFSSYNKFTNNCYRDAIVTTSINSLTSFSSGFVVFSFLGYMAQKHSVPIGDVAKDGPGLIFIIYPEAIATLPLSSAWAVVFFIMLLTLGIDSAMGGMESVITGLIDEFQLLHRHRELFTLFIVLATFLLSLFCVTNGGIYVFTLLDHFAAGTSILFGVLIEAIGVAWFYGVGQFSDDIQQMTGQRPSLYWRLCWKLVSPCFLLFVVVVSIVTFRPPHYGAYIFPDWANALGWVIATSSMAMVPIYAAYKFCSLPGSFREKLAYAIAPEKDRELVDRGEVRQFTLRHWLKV

[4] = molecular target: T2, Polyunsaturated fatty acid lipoxygenase ALOX15 (Oryctolagus cuniculus, UniProt P12530); assay: biochemical; format: tissue-based, Reticulocytes; settings: reticulocytes;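 also: inhibition of 15-lipoxygenase enzyme activity measured with linoleic acid as the substrate; in other assays of this panel Not Active means under 50% inhibition at 10 µM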
T2 sequence (P12530 whole entry): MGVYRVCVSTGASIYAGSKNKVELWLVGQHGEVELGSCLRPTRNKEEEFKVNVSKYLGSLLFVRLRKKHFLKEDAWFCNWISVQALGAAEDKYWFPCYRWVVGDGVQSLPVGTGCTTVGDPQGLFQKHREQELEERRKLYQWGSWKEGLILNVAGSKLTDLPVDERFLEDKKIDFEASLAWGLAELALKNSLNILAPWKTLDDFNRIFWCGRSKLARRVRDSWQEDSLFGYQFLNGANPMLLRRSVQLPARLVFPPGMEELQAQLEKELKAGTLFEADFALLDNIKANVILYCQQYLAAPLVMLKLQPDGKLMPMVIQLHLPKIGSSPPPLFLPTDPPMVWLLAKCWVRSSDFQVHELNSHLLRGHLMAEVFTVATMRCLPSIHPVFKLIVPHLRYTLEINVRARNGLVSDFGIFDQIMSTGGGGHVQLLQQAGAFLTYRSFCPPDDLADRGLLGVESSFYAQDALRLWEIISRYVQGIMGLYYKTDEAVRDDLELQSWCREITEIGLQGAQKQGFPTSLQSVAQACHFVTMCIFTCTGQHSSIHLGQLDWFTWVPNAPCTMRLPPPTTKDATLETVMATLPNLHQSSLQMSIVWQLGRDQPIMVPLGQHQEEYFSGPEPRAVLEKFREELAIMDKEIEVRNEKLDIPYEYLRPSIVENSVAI

[5] = molecular target: Matrix metalloproteinase-9 (Homo sapiens, UniProt P14780); assay: biochemical; format: cell-based;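 also: inhibition of isolated MMP-9 enzyme activity toward a synthetic peptide substrate, from the DrugMatrix protease screening panel; in other assays of this panel Not Active means under 50% inhibition at 10 µM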
Sequence of Matrix metalloproteinase-9 (P14780 whole entry): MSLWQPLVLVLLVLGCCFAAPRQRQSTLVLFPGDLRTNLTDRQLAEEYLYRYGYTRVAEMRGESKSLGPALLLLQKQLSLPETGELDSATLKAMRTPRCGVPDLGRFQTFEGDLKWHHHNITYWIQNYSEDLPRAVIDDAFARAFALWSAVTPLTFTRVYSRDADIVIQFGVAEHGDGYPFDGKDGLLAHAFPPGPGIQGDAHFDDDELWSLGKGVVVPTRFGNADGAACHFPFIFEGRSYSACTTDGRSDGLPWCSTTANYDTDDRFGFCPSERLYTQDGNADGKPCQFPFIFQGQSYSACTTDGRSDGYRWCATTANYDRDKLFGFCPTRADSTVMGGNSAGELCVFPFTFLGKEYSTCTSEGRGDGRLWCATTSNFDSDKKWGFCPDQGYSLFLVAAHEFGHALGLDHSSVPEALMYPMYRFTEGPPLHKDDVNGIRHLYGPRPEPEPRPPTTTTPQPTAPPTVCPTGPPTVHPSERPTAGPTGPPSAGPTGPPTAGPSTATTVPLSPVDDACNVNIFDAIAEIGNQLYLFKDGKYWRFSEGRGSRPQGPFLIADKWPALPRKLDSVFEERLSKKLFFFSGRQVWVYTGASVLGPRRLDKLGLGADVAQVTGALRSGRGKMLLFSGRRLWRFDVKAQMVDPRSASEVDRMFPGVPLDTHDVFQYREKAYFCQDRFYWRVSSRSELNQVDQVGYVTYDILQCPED

Androgen receptor = molecular target: T3, Androgen receptor (Rattus norvegicus, UniProt P15207); also: in other assays of this panel Not Active means under 50% inhibition at 10 µM
T3 sequence (P15207 whole entry): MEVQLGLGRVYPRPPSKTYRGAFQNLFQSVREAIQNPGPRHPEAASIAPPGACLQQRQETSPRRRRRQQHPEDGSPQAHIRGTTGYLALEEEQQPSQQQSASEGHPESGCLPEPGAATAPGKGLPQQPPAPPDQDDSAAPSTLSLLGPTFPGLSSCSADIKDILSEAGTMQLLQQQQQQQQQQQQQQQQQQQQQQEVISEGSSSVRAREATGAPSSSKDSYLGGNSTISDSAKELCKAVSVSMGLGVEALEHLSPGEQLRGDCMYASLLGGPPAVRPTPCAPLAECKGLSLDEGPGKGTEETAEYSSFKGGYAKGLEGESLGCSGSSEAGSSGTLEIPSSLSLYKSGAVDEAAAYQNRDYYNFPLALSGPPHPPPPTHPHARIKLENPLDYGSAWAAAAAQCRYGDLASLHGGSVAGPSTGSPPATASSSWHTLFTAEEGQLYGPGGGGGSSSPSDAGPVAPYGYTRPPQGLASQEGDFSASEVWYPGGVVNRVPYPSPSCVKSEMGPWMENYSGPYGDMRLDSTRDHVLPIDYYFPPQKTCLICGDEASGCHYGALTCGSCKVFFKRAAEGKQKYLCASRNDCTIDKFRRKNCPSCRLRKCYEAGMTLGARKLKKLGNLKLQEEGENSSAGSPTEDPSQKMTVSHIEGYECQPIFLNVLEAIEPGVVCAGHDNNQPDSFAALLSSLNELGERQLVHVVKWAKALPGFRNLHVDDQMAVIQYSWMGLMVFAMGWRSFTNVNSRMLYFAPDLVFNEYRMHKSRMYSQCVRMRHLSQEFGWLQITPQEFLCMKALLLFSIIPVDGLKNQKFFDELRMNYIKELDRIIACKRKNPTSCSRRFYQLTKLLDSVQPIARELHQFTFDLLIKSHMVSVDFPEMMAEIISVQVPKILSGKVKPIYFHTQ

STANNOUS FLUORIDE
Not Active: IC50 [1] | Ki [1] | IC50 ([2]; cho-k1) | Ki ([2]; cho-k1) | IC50 [3] | Ki [3] | IC50 [4] | Ki [4] | IC50 [5] | Ki [5] | IC50 (Androgen receptor) | Ki (Androgen receptor)

C[C@@H](O)[C@H]1C(=O)N2C(C(=O)O)=C(S[C@@H]3CN[C@H](C(=O)N(C)C)C3)[C@H](C)[C@H]12 [MEROPENEM]
Not Active: IC50 [1] | IC50 ([2]; cho-k1) | IC50 [3] | IC50 [4] | IC50 [5]

COc1ncnc(NS(=O)(=O)c2ccc(N)cc2)c1OC [SULFADOXINE]
Not Active: IC50 [1] | IC50 ([2]; cho-k1) | IC50 [3] | IC50 [4] | IC50 [5]

CCCc1nn(C)c2c(=O)[nH]c(-c3cc(S(=O)(=O)N4CCN(C)CC4)ccc3OCC)nc12
Not Active: IC50 [1] | IC50 ([2]; cho-k1) | IC50 [3] | IC50 [4] | IC50 [5]

COc1ccc(/C=C/C(=O)Nc2ccccc2C(=O)O)cc1OC
Not Active: IC50 [1] | IC50 ([2]; cho-k1) | IC50 [3] | IC50 [4] | IC50 [5] | IC50 (Androgen receptor)

CC1=C(CC(=O)O)c2cc(F)ccc2/C1=C\c1ccc(S(C)(=O)=O)cc1 [EXISULIND]
269 nM: IC50 ([1]; read-out: IC50)
Not Active: IC50 ([2]; cho-k1) | IC50 [3] | IC50 [4] | IC50 [5] | IC50 (Androgen receptor)

CN1C2CCCC1CC(NC(=O)c1nn(C)c3ccccc13)C2 (stereo not given) [GRANISETRON]
Not Active: IC50 [1] | IC50 ([2]; cho-k1) | IC50 [3] | IC50 [4] | IC50 [5]

Cc1cn([C@H]2C[C@H](N=[N+]=[N-])[C@@H](CO)O2)c(=O)[nH]c1=O [ZIDOVUDINE]
Not Active: IC50 [1] | IC50 ([2]; cho-k1) | IC50 [3] | IC50 [4] | IC50 [5]

OCCN1CCN(CCCN2c3ccccc3Sc3ccc(C(F)(F)F)cc32)CC1 [FLUPHENAZINE]
Not Active: IC50 [1] | IC50 [4] | IC50 [5]

CC(C)(C)NC[C@H](O)COc1nsnc1N1CCOCC1 [TIMOLOL]
Not Active: IC50 [1] | IC50 ([2]; cho-k1) | IC50 [3] | IC50 [4] | IC50 [5]

Nc1nc2c(c(=O)[nH]1)N(C=O)C(CNc1ccc(C(=O)N[C@@H](CCC(=O)O)C(=O)O)cc1)CN2 (stereo not given in full) [LEUCOVORIN]
Not Active: IC50 [1] | IC50 ([2]; cho-k1) | IC50 [3] | IC50 [4] | IC50 [5] | IC50 (Androgen receptor)

O=c1n(CCCN2CCN(c3cccc(Cl)c3)CC2)nc2ccccn12 [TRAZODONE]
Not Active: IC50 [1] | IC50 [3] | IC50 [4] | IC50 [5]

CCOC(N)=O
Not Active: IC50 [1] | IC50 ([2]; cho-k1) | IC50 [3] | IC50 [4] | IC50 [5]

CN(CCOc1ccc(CC2SC(=O)NC2=O)cc1)c1ccccn1 (stereo not given) [ROSIGLITAZONE]
Not Active: IC50 [1] | IC50 ([2]; cho-k1) | IC50 [3] | IC50 [4] | IC50 [5]

CC(=O)O[C@H]1C[C@@H]2CC[C@@H]3[C@H](CC[C@@]4(C)[C@H]3C[C@H]([N+]3(C)CCCCC3)[C@@H]4OC(C)=O)[C@@]2(C)C[C@@H]1N1CCCCC1.[Br-] [VECURONIUM BROMIDE]
Not Active: IC50 [1] | IC50 ([2]; cho-k1) | IC50 [3] | IC50 [4] | IC50 [5]

Nc1ccc(S(=O)(=O)Nc2ncccn2)cc1 [SULFADIAZINE]
Not Active: IC50 [1] | IC50 ([2]; cho-k1) | IC50 [3] | IC50 [4] | IC50 [5]

CCS(=O)(=O)CCn1c([N+](=O)[O-])cnc1C [TINIDAZOLE]
Not Active: IC50 [1] | IC50 ([2]; cho-k1) | IC50 [3] | IC50 [4] | IC50 [5]

Nc1ccc(S(=O)(=O)Nc2nccs2)cc1 [SULFATHIAZOLE]
Not Active: IC50 [1] | IC50 ([2]; cho-k1) | IC50 [3] | IC50 [4] | IC50 [5]

O=C(O)C(Cl)(Cl)Cl [TRICHLOROACETIC ACID]
Not Active: IC50 [1] | IC50 ([2]; cho-k1) | IC50 [3] | IC50 [4] | IC50 [5]

C#CCN(C)[C@H](C)Cc1ccccc1 [SELEGILINE]
Not Active: IC50 [1] | IC50 ([2]; cho-k1) | IC50 [3] | IC50 [4] | IC50 [5]

CC(C)OC(=O)C(C)(C)Oc1ccc(C(=O)c2ccc(Cl)cc2)cc1 [FENOFIBRATE]
Not Active: IC50 [1] | IC50 [4] | IC50 [5] | IC50 (Androgen receptor)

CCN(CC)CC#CCOC(=O)C(O)(c1ccccc1)C1CCCCC1 (stereo not given) [OXYBUTYNIN]
Not Active: IC50 [1] | IC50 ([2]; cho-k1) | IC50 [4] | IC50 [5]

CC(=O)Nc1nnc(S(N)(=O)=O)s1 [ACETAZOLAMIDE]
Not Active: IC50 [1] | IC50 ([2]; cho-k1) | IC50 [3] | IC50 [4] | IC50 [5]

CNS(=O)(=O)Cc1ccc2[nH]cc(CCN(C)C)c2c1
Not Active: IC50 [1] | IC50 ([2]; cho-k1) | IC50 [3] | IC50 [4] | IC50 [5]

CC[C@@H](CO)NC(=O)[C@@H]1C=C2c3cccc4c3c(cn4C)C[C@H]2N(C)C1 [METHYSERGIDE]
Not Active: IC50 [1] | IC50 [3] | IC50 [4] | IC50 [5]
1.09 nM: Ki ([2]; read-out: Ki)
2.09 nM: IC50 ([2]; read-out: IC50)

C[C@]12CC[C@H]3[C@@H](CCC4=CC(=O)CC[C@@]43C)[C@@H]1CC[C@@H]2O [TESTOSTERONE]
Not Active: IC50 [1] | IC50 ([2]; cho-k1) | IC50 [3] | IC50 [4] | IC50 [5]

NC[C@H]1O[C@H](O[C@H]2[C@H](O)[C@@H](O[C@H]3O[C@H](CO)[C@@H](O)[C@H](N)[C@H]3O)[C@H](N)C[C@@H]2N)[C@H](N)C[C@@H]1O [TOBRAMYCIN]
Not Active: IC50 [1] | IC50 ([2]; cho-k1) | IC50 [3] | IC50 [4] | IC50 [5]

O=c1[nH]c2ccccc2n1CCCN1CCC(n2c(=O)[nH]c3cc(Cl)ccc32)CC1 [DOMPERIDONE]
Not Active: IC50 [1] | IC50 [3] | IC50 [4] | IC50 [5]

O=P(O)(O)C(O)(Cc1cccnc1)P(=O)(O)O [RISEDRONIC ACID]
Not Active: IC50 [1] | IC50 ([2]; cho-k1) | IC50 [3] | IC50 [4] | IC50 [5]

COc1ccc(CN2CCNCC2)c(OC)c1OC [TRIMETAZIDINE]
Not Active: IC50 [1] | IC50 ([2]; cho-k1) | IC50 [3] | IC50 [4] | IC50 [5]
